Calls of active or inactive are those of the source.
Assays:
[1] = target: Tyrosine-protein kinase SYK (Homo sapiens, UniProt P43405); format: functional
[2] = target: Tyrosine-protein kinase receptor TYRO3 (Homo sapiens, UniProt Q06418); format: functional;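 also: TYRO3 value obtained as one member of a kinome-wide profiling panel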
[3] = target: Serine/threonine-protein kinase Chk2 (Homo sapiens, UniProt O96017); format: functional;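 also: CHEK2 entry within a kinome-wide screening panel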
[4] = target: Casein kinase I isoform alpha (Homo sapiens, UniProt P48729); format: functional
[5] = target: Tyrosine-protein kinase JAK3 (Homo sapiens, UniProt P52333); format: functional
[6] = target: Casein kinase I isoform gamma-1 (Homo sapiens, UniProt Q9HCP0); format: functional;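 also: measured as the CSNK1G1 member of a kinome profiling panel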
[7] = target: Glycogen synthase kinase-3 alpha (Homo sapiens, UniProt P49840); format: functional;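 also: GSK3A result taken from a broad kinome-wide kinase panel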
[8] = target: Dual specificity tyrosine-phosphorylation-regulated kinase 3 (Homo sapiens, UniProt O43781); format: functional;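 also: measured as one member of a broad kinase panel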
[9] = target: Hepatocyte growth factor receptor (Homo sapiens, UniProt P08581); format: functional;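 also: kinase panel profiling across the kinome, with MET as the panel member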
[10] = target: Dual specificity tyrosine-phosphorylation-regulated kinase 4 (Homo sapiens, UniProt Q9NR20); format: functional
[11] = target: cAMP-dependent protein kinase catalytic subunit PRKX (Homo sapiens, UniProt P51817); format: functional
[12] = target: Large T antigen (Simian virus 40, UniProt P03070); format: functional, Betapolyomavirus macacae;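 also: Confirmatory-stage PubChem screen for compounds that inhibit SV40 T antigen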
[13] = target: T1, Dual specificity protein phosphatase 6 (Rattus norvegicus, UniProt Q64346)
T1 sequence (Q64346 whole entry): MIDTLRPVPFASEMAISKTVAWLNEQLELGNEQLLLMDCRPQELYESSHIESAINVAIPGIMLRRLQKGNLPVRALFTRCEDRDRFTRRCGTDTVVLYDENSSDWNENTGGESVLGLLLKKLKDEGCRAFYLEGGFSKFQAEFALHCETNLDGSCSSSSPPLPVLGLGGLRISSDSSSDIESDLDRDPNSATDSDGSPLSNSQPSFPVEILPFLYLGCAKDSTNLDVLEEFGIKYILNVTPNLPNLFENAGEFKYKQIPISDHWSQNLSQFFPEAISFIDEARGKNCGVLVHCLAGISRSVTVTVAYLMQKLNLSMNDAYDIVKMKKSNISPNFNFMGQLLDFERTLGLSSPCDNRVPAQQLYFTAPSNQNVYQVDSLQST

[14] = target: T1, Dual specificity protein phosphatase 6; format: functional
[15] = target: T2, Oxysterols receptor LXR-beta (Homo sapiens, UniProt P55055); format: functional, cell-based;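 also: Cell-based luminescence dose-response assay of agonist activity at LXR, run as a confirmatory counterscreen to a daf-12 agonist screen; HEK293 cells with Gal4-LXR fusion and GAL4-driven luciferase reporter; agonist potency from rising luciferase signal of a Gal4-LXR reporter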
T2 sequence (P55055 whole entry): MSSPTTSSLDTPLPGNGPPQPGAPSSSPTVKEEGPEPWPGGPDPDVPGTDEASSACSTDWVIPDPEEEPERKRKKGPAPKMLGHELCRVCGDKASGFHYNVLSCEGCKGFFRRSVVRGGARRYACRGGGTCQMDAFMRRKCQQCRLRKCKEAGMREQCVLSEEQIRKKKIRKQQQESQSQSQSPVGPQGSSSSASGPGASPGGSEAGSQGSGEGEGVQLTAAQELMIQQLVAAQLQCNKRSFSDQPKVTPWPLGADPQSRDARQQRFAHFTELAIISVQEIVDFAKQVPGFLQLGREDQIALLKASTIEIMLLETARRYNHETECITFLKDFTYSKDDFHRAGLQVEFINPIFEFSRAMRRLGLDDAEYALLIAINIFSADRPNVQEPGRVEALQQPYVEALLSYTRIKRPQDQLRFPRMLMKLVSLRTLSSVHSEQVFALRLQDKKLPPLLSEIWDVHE

[16] = Trypanosoma cruzi growth suppression in host cells – NIH3T3 host cells, beta-gal luminescence, confirmation (AID 2044); format: functional, cell-based;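 also: intracellular parasites grown in NIH/3T3 mouse fibroblasts as host cells; luminescent beta-galactosidase reporter signal from transgenic T. cruzi replicating inside host cells; inhibitors lower the luminescence signal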
[17] = target: T3, Caspase-3 (Homo sapiens, UniProt P42574); assay: SAR Analysis of small molecule inhibitors of Sentrin-specific proteases (SENPs) using a Caspase-3 Selectivity assay. [Related pubchem assays (depositor defined):AID2540, AID2599, AID434973, AID489001]; format: functional
T3 sequence (P42574 whole entry): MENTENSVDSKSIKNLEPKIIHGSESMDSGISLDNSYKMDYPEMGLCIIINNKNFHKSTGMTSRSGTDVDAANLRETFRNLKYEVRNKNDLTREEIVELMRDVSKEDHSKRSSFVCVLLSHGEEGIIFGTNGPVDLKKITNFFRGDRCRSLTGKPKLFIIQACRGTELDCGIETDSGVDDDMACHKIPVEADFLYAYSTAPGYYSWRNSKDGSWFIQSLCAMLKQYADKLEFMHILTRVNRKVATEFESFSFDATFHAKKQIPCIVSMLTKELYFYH

[18] = Luminescence Cell-Based Dose Retest to Confirm Inhibitors of Cancer Stem Cells. [Related pubchem assays (depositor defined):AID2717, AID2721]; format: functional, Homo sapiens; conditions: Homo sapiens
[19] = Counterscreen for AddAB inhibitors: absorbance-based bacterial cell-based high throughput dose response assay for inhibitors of bacterial viability. [Related pubchem assays (depositor defined):AID435030, AID449728, AID449731, AID488942, AID488955, AID488956]; format: functional
[20] = target: Matrix metalloproteinase-14 (Homo sapiens, UniProt P50281); assay: Dose Response confirmation of uHTS hits for a small molecule inhibitors of MT1-MMP activation in a fluorescence assay set 2.; format: functional
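For AC50 in this document: cells exposed to compound for roughly 70 hours or longer before luminescence read.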

Hepatocyte growth factor receptor, sequence (P08581 whole entry): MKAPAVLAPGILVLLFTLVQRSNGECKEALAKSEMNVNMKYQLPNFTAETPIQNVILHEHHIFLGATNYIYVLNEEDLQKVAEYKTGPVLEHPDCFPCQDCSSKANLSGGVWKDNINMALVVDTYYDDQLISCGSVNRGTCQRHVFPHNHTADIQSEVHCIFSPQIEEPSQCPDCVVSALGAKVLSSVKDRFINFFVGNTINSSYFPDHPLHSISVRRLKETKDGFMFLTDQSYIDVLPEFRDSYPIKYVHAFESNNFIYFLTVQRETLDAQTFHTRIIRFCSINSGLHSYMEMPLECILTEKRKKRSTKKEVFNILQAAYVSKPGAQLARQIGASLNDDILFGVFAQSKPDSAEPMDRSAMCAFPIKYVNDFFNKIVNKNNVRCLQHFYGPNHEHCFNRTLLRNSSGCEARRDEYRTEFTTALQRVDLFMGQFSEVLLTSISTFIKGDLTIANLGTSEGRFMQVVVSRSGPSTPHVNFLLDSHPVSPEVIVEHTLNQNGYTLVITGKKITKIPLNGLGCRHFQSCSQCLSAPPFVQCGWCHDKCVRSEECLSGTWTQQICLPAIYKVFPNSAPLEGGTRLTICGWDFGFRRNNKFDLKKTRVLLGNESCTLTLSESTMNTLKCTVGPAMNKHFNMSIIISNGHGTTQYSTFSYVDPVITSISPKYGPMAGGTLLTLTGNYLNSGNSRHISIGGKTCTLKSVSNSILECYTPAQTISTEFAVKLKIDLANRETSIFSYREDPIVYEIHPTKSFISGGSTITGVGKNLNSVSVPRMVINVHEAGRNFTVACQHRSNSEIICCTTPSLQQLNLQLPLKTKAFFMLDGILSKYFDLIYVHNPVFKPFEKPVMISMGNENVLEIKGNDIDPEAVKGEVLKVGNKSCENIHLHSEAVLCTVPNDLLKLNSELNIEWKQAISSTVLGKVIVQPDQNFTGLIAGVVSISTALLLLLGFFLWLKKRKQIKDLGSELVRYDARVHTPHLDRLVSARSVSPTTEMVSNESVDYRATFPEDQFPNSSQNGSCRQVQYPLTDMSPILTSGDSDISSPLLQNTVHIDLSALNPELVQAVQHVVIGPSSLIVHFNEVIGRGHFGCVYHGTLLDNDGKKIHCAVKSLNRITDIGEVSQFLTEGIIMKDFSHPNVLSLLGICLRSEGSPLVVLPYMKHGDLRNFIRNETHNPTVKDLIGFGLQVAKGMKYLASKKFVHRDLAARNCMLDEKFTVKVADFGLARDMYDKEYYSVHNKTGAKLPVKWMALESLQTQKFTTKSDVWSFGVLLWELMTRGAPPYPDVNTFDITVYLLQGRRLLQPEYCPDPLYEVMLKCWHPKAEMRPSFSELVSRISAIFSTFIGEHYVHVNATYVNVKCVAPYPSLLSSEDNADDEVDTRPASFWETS
Glycogen synthase kinase-3 alpha, sequence (P49840 whole entry): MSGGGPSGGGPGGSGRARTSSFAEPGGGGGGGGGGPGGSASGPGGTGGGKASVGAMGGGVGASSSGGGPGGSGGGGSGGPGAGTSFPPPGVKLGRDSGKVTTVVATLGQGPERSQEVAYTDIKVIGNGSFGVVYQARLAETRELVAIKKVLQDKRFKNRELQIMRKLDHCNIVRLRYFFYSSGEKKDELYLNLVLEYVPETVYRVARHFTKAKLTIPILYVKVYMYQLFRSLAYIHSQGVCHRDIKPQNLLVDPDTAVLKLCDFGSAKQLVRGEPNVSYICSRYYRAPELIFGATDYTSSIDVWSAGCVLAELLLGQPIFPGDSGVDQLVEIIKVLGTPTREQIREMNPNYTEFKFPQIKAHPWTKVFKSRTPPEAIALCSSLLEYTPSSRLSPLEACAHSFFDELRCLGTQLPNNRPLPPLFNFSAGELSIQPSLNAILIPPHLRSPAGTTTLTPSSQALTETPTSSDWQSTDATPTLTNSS
Tyrosine-protein kinase JAK3, sequence (P52333 whole entry, canonical isoform): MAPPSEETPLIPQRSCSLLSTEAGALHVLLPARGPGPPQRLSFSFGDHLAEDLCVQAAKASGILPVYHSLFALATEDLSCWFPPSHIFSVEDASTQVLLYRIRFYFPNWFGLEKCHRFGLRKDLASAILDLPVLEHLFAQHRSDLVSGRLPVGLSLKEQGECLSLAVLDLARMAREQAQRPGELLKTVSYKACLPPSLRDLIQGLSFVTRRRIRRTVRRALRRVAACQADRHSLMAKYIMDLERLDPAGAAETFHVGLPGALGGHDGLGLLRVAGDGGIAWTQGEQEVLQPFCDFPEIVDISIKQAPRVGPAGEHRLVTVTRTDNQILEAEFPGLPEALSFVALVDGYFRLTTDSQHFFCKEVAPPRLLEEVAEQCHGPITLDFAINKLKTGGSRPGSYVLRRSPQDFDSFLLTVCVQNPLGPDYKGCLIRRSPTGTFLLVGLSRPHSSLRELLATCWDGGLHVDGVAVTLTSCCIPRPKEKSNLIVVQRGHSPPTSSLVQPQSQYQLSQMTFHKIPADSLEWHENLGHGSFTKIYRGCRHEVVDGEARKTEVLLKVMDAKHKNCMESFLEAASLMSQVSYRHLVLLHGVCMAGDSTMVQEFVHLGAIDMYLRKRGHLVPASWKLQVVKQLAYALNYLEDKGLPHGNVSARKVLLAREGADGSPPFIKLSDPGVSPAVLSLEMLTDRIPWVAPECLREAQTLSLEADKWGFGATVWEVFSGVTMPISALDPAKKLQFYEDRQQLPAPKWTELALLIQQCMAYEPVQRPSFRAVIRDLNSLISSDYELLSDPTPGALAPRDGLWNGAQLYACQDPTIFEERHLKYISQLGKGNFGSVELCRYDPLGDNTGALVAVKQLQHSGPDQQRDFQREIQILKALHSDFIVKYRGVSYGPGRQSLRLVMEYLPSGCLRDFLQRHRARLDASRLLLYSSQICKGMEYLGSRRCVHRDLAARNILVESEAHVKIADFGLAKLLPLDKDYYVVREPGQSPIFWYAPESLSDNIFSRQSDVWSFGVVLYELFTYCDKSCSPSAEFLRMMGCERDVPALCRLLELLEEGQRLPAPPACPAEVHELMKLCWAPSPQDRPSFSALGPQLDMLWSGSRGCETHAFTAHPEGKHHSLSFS
Large T antigen, sequence (P03070 whole entry): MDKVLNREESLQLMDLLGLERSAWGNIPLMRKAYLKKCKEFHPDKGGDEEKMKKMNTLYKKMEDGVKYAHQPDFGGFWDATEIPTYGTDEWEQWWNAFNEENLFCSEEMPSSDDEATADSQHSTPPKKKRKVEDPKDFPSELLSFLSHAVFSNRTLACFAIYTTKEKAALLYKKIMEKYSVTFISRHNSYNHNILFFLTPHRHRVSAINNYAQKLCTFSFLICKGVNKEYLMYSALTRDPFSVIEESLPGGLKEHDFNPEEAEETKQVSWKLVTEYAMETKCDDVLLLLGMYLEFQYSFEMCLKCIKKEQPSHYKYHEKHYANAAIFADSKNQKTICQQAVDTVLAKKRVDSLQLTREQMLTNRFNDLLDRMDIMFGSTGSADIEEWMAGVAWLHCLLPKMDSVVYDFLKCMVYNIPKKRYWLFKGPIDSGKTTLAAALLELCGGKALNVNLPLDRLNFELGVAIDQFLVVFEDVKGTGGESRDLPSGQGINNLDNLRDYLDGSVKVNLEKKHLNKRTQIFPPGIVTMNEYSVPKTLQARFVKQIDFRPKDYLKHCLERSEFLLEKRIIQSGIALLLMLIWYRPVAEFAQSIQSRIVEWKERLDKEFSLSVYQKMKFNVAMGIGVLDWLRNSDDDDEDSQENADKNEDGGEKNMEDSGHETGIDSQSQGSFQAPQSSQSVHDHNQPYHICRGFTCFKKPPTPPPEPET
Serine/threonine-protein kinase Chk2, sequence (O96017 whole entry, canonical isoform): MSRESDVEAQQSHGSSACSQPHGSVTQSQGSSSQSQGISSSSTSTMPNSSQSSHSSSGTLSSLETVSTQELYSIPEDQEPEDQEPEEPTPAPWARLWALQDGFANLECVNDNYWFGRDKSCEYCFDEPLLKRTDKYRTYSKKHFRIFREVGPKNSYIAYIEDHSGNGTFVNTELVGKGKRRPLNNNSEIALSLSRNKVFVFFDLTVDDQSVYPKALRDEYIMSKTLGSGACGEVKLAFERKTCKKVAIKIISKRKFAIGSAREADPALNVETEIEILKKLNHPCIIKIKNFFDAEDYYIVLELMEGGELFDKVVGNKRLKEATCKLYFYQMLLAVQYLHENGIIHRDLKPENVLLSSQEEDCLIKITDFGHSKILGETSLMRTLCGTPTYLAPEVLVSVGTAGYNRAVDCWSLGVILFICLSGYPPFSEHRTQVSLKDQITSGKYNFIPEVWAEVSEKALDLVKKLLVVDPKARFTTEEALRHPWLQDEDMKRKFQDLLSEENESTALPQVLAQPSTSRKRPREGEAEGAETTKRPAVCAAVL
Dual specificity tyrosine-phosphorylation-regulated kinase 3, sequence (O43781 whole entry): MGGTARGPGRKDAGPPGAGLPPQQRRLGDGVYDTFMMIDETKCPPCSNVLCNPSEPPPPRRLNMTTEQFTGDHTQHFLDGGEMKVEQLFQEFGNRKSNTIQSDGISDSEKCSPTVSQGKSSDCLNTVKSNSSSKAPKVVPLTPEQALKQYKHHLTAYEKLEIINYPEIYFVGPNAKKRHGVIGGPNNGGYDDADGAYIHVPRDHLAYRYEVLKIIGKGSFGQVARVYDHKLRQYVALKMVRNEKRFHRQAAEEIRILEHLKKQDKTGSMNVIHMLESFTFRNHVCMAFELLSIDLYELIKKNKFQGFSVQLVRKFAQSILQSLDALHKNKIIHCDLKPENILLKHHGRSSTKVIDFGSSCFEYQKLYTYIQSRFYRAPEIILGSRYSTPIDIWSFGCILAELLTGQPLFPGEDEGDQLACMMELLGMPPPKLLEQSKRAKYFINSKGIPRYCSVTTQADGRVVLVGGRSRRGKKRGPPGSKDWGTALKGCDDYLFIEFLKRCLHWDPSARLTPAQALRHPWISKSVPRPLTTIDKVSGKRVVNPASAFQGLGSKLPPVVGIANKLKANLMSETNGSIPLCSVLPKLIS

Cc1n[nH]c2ccc(-c3cncc(OCC(N)Cc4cccc(Cl)c4)c3)cc12 (stereo not given)
Ki [1]: > 1.58 µM (inactive) | Ki [2]: > 2 µM (inactive) | Ki [3]: 0.631 µM (active) | Ki [4]: 0.126 µM (active) | Ki [5]: 0.794 µM (active) | Ki [6]: 0.0794 µM (active) | Ki [7]: 0.0501 µM (active) | Ki [8]: 0.00501 µM (active) | Ki [9]: > 3.16 µM (inactive) | Ki [10]: 0.316 µM (active) | Ki [11]: 0.001 µM (active)

O=C(O)C1Nc2c(O)cc(Cl)c([N+](=O)[O-])c2C2C=CCC12 (stereo not given)
IC50 [12]: 9.86 µM (active) | IC50 [13]: 36.8 µM (active) | IC50 [14]: 35.4 µM (active)

Clc1ccc2nc(-c3ccc(Br)s3)cn2c1
EC50 [15]: > 67.5 µM (inactive)

O=C(CCc1ccccc1)NNc1cc(N2CCCCC2)nc(N2CCCCC2)n1
EC50 [16]: 3.74 µM (active) | IC50 [17]: > 99 µM (inactive)

Oc1ccc(N=Nc2c(O)ccc3ccccc23)cc1
AC50 [18]: 2.38 µM (active) | IC50 [19]: > 118 µM (inactive) | IC50 [20]: 22.8 µM (inactive)

— ChEMBL document CHEMBL1201862, “PubChem BioAssay data set” (2004)
